Measured values from BigSolDB 2.1.

OC[C@@H](O)C(O)[C@@H](O)CO (some centres undefined)
solubility (mole fraction)
Settings | 293.15 K | 298.15 K | 303.15 K | 308.15 K | 313.15 K | 318.15 K | 323.15 K
in acetone | 0.000202 | 0.00024 | 0.000302 | 0.000399 | 0.000542 | 0.000739 | 0.001
in ethanol | 0.00172 | 0.0024 | 0.00309 | 0.00396 | 0.00521 | 0.00703 | 0.0096
